Measurements from patent US20090264345A1, “MACROCYCLIC PEPTIDES AND METHODS FOR MAKING AND USING THEM” (priority 2006, published 2009).
Like-named read-outs stand apart in the source and are kept apart here.

Columns and labels:
MSS colon cancers = settings: drug of choice for MSS colon cancers; cited from earlier work
[1] = amide bond, 15-membered ring, DEPBT/HATU/TBTU/DIEA, THF/MeCN/CH2Cl2 2:2:1, 7.0 mM, 2 steps
[2] = system: virus-encoded topoisomerase I; settings: poxvirus MCV; Hwang et al. 1999; cited from earlier work

For `O=c1[nH]cc(F)c(=O)[nH]1` [5-fluorouracil], the IC50 (MSS colon cancers) is listed as 5 µM.

`CC(C)C[C@@H]1NC(=O)[C@H](Cc2ccccc2)NC(=O)[C@@H](CC(C)C)N(C)C(=O)[C@H](C(C)C)NC(=O)[C@H](CC(C)C)NC1=O` [cyclo[-Phe-Xaa-Val-Leu-Leu-] (Xaa-2 DNMeLeu)] gave a ring closure, isolated yield ([1]; from H-Leu-Leu-Val-dMeLeu-Phe-OH?) of 81%.

`CC(C)C[C@@H]1NC(=O)[C@H](CC(C)C)NC(=O)[C@@H](Cc2ccccc2)NC(=O)[C@@H](CC(C)C)NC(=O)[C@H](C(C)C)NC1=O` [cyclo[-Xaa-Xaa-Val-Leu-Leu-] (Xaa-1 DPhe, Xaa-2 DLeu)] gave a ring closure, isolated yield ([1]; from H-Leu-Leu-Val-dLeu-dPhe-OH?) of 37%.

`CC(C)C[C@@H]1NC(=O)[C@H](Cc2ccccc2)NC(=O)[C@@H](CC(C)C)NC(=O)[C@H](C(C)C)NC(=O)[C@H](CC(C)C)NC1=O` [cyclo[-Phe-Xaa-Val-Leu-Leu-] (Xaa-2 DLeu)] showed a ring closure, isolated yield ([1]; from H-Leu-Leu-Val-dLeu-Phe-OH?) of 85%.

`CC(C)C[C@@H]1NC(=O)[C@H](C(C)C)NC(=O)[C@@H](CC(C)C)NC(=O)[C@@H](CC(C)C)NC(=O)[C@H](Cc2ccccc2)NC1=O` [cyclo[-Phe-Leu-Val-Xaa-Xaa-] (Xaa-4 DLeu, Xaa-5 DLeu)] gave a ring closure, isolated yield ([1]; from H-dLeu-dLeu-Val-Leu-Phe-OH?) of 35%.

Work on `CC(C)C[C@@H]1NC(=O)[C@H](Cc2ccccc2)NC(=O)[C@H](CC(C)C)NC(=O)[C@@H](C(C)C)NC(=O)[C@H](CC(C)C)NC1=O` [cyclo[-Phe-Leu-Xaa-Leu-Leu-] (Xaa-3 DVal)] yielded a ring closure, isolated yield ([1]; from H-Leu-Leu-dVal-Leu-Phe-OH?) of 65%.

For `CC(C)C[C@@H]1NC(=O)[C@H](C(C)C)NC(=O)[C@H](CC(C)C)N(C)C(=O)[C@@H](CC(C)C)NC(=O)[C@H](Cc2ccccc2)NC1=O` [cyclo[-Phe-Leu-Val-Xaa-Xaa-] (Xaa-4 NMeLeu, Xaa-5 DLeu)], the ring closure, isolated yield ([1]; from H-dLeu-MeLeu-Val-Leu-Phe-OH?) was 40%.

For `CC(C)C[C@@H]1NC(=O)[C@H](Cc2ccccc2)NC(=O)[C@H](CC(C)C)NC(=O)[C@H](C(C)C)NC(=O)[C@H](CC(C)C)NC1=O` [cyclo[-Phe-Leu-Val-Leu-Leu-]], the ring closure, isolated yield ([1]; from H-Leu-Leu-Val-Leu-Phe-OH?) was 65%.

`CC(C)C[C@@H]1NC(=O)[C@H](Cc2ccccc2)NC(=O)[C@H](CC(C)C)NC(=O)[C@H](C(C)C)NC(=O)[C@@H](CC(C)C)NC1=O` [cyclo[-Phe-Leu-Val-Xaa-Leu-] (Xaa-4 DLeu)] gave a ring closure, isolated yield ([1]; from H-Leu-dLeu-Val-Leu-Phe-OH?) of 53%.

Work on `CC(C)C[C@@H]1NC(=O)[C@H](CC(C)C)NC(=O)[C@@H](Cc2ccccc2)NC(=O)[C@H](CC(C)C)NC(=O)[C@H](C(C)C)NC1=O` [cyclo[-Xaa-Leu-Val-Leu-Leu-] (Xaa-1 DPhe)] yielded a ring closure, isolated yield ([1]; from H-Leu-Leu-Val-Leu-dPhe-OH?) of 39%.

For Sansalvamide A [San A], the “inhibition of topoisomerase I” value [2] is given as “inhibitor”.
